Patent US20220389007A1, “INHIBITORS OF HUMAN IMMUNODEFICIENCY VIRUS REPLICATION” (VIIV HEALTHCARE UK (No. 5) LIMITED, priority 2019, published 2022)

Experiments:
recombinant NL4-3 virus = test: HIV cell culture assay (antiviral activity, luciferase readout); type: cell-based; conditions: Human immunodeficiency virus 1, NL43, MT2, MT-2 cells infected for 4-5 days with recombinant NL4-3 virus carrying Renilla luciferase
Summary of the method: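 MT-2 cells infected for 4-5 days with NL4-3 reference virus carrying Renilla luciferase in place of part of nef, in presence of serial compound dilutions. Luciferase read with live-cell substrate; EC50 from median effect equation fit.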

[1] = Compound cytotoxicity, XTT-based colorimetric assay; type: cell-based; conditions: human; uninfected MT2 cells, day 4, XTT assay
Summary of the method: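 Run under the antiviral-assay protocol but without virus. Viability was read on day 4 and CC50 values were derived from the readout.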

## Cn1nc(C(F)(F)F)cc1-c1ccc2c(=O)n(-c3ccc(Cl)c4c(NS(C)(=O)=O)nn(C)c34)c([C@H](Cc3cc(F)cc(F)c3)NC(=O)Cn3nc(C(F)F)c4c3C(F)(F)[C@@H]3C[C@H]43)nc2n1 (atropisomer, axis not shown; (P)) [Example 83, N-((S)-1-((3P)-3-(4-chloro-1-methyl-3-(methylsulfonamido)-1H-indazol-7-yl)-7-(1-methyl-3-(trifluoromethyl)-1H-pyrazol-5-yl)-4-oxo-3,4-dihydropyrido[2,3-d]pyrimidin-2-yl)-2-(3,5-difluorophenyl)ethyl)-2-((3bS,4aR)-3-(difluoromethyl)-5,5-difluoro-3b,4,4a,5-tetrahydro-1H-cyclopropa[3,4]cyclopenta[1,2-c]pyrazol-1-yl)acetamide]
Recombinant NL4-3 virus
  EC50: 0.07 nM
[1]
  CC50 at 4 day: > 100 nM

## Cc1cc(-c2ccc3c(=O)n(-c4ccc(Cl)c5c(NS(C)(=O)=O)nn(C)c45)c([C@H](Cc4cc(F)cc(F)c4)NC(=O)Cn4nc(C(F)F)c5c4C(F)(F)[C@@H]4C[C@H]54)nc3n2)nn1CC(C)(F)F (single isomer, unassigned) [Example 96]
Recombinant NL4-3 virus
  EC50: 0.044 nM
[1]
  CC50 at 4 day: > 100 nM

## Cc1cc(-c2ccc3c(=O)n(-c4ccc(Cl)c5c(NS(C)(=O)=O)nn(C)c45)c([C@H](Cc4cc(F)cc(F)c4)NC(=O)Cn4nc(C(F)F)c5c4C(F)(F)[C@@H]4C[C@H]54)nc3n2)nc(C(F)(F)F)n1 (atropisomer, axis not shown; (P)) [Example 18, N-((S)-1-((3P)-3-(4-chloro-1-methyl-3-(methylsulfonamido)-1H-indazol-7-yl)-7-(6-methyl-2-(trifluoromethyl)pyrimidin-4-yl)-4-oxo-3,4-dihydropyrido[2,3-d]pyrimidin-2-yl)-2-(3,5-difluorophenyl)ethyl)-2-((3bS,4aR)-3-(difluoromethyl)-5,5-difluoro-3 b,4,4a,5-tetrahydro-1H-cyclopropa[3,4]cyclopenta[1,2-c]pyrazol-1-yl)acetamide]
Recombinant NL4-3 virus
  EC50: 0.068 nM
[1]
  CC50 at 4 day: > 100 nM

## Cn1nc(NS(C)(=O)=O)c2c(Cl)ccc(-n3c([C@H](Cc4cc(F)cc(F)c4)NC(=O)Cn4nc(C(F)F)c5c4C(F)(F)[C@@H]4C[C@H]54)nc4nc(-c5cccc(C(F)F)n5)ccc4c3=O)c21 (atropisomer, axis not shown; (P)) [Example 38, N-((S)-1-((3P)-3-(4-chloro-1-methyl-3-(methylsulfonamido)-1H-indazol-7-yl)-7-(6-(difluoromethyl)pyridin-2-yl)-4-oxo-3,4-dihydropyrido[2,3-d]pyrimidin-2-yl)-2-(3,5-difluorophenyl)ethyl)-2-((3bS,4aR)-3-(difluoromethyl)-5,5-difluoro-3b,4,4a,5-tetrahydro-1H-cyclopropa[3,4]cyclopenta[1,2-c]pyrazol-1-yl)acetamide]
Recombinant NL4-3 virus
  EC50: 0.051 nM
[1]
  CC50 at 4 day: > 100 nM

## Cc1cc(-c2ccc3c(=O)n(-c4ccc(Cl)c5c(NS(C)(=O)=O)nn(C)c45)c([C@H](Cc4cc(F)cc(F)c4)NC(=O)Cn4nc(C(F)F)c5c4C(F)(F)[C@@H]4C[C@H]54)nc3n2)n[nH]1 (atropisomer, axis not shown; (P)) [Example 98, N-((S)-1-((3P)-3-(4-chloro-1-methyl-3-(methylsulfonamido)-1H-indazol-7-yl)-7-(5-methyl-1H-pyrazol-3-yl)-4-oxo-3,4-dihydropyrido[2,3-d]pyrimidin-2-yl)-2-(3,5-difluorophenyl)ethyl)-2-((3bS,4aR)-3-(difluoromethyl)-5,5-difluoro-3b,4,4a,5-tetrahydro-1H-cyclopropa[3,4]cyclopenta[1,2-c]pyrazol-1-yl)acetamide]
Recombinant NL4-3 virus
  EC50: 0.2 nM
[1]
  CC50 at 4 day: > 100 nM

## Cn1nc(NS(C)(=O)=O)c2c(Cl)ccc(-n3c([C@H](Cc4cc(F)cc(F)c4)NC(=O)Cn4nc(C(F)F)c5c4C(F)(F)[C@@H]4C[C@H]54)nc4nc(-c5ccccn5)ccc4c3=O)c21 (atropisomer, axis not shown; (P)) [Example 60, N-((S)-1-((3P)-3-(4-chloro-1-methyl-3-(methylsulfonamido)-1H-indazol-7-yl)-4-oxo-7-(pyridin-2-yl)-3,4-dihydropyrido[2,3-d]pyrimidin-2-yl)-2-(3,5-difluorophenyl)ethyl)-2-((3bS,4aR)-3-(difluoromethyl)-5,5-difluoro-3b,4,4a,5-tetrahydro-1H-cyclopropa[3,4]cyclopenta[1,2-c]pyrazol-1-yl)acetamide]
Recombinant NL4-3 virus
  EC50: 0.032 nM
[1]
  CC50 at 4 day: > 100 nM

## Cn1nc(NS(C)(=O)=O)c2c(Cl)ccc(-n3c([C@H](Cc4cc(F)cc(F)c4)NC(=O)Cn4nc(C(F)F)c5c4C(F)(F)[C@@H]4C[C@H]54)nc4nc(-c5cccc(C(C)(F)F)n5)ccc4c3=O)c21 (atropisomer, axis not shown; (P)) [Example 12, N-((S)-1-((3P)-3-(4-chloro-1-methyl-3-(methylsulfonamido)-1H-indazol-7-yl)-7-(6-(1,1-difluoroethyl)pyridin-2-yl)-4-oxo-3,4-dihydropyrido[2,3-d]pyrimidin-2-yl)-2-(3,5-difluorophenyl)ethyl)-2-((3bS,4aR)-3-(difluoromethyl)-5,5-difluoro-3b,4,4a,5-tetrahydro-1H-cyclopropa[3,4]cyclopenta[1,2-c]pyrazol-1-yl)acetamide]
Recombinant NL4-3 virus
  EC50: 0.06 nM
[1]
  CC50 at 4 day: > 100 nM

## COc1ncc(-c2ccc3c(=O)n(-c4ccc(Cl)c5c(NS(C)(=O)=O)nn(C)c45)c([C@H](Cc4cc(F)cc(F)c4)NC(=O)Cn4nc(C(F)F)c5c4C(F)(F)[C@@H]4C[C@H]54)nc3n2)s1 (atropisomer, axis not shown; (P)) [Example 82, N-((S)-1-((3P)-3-(4-chloro-1-methyl-3-(methylsulfonamido)-1H-indazol-7-yl)-7-(2-methoxythiazol-5-yl)-4-oxo-3,4-dihydropyrido[2,3-d]pyrimidin-2-yl)-2-(3,5-difluorophenyl)ethyl)-2-((3bS,4aR)-3-(difluoromethyl)-5,5-difluoro-3b,4,4a,5-tetrahydro-1H-cyclopropa[3,4]cyclopenta[1,2-c]pyrazol-1-yl)acetamide]
Recombinant NL4-3 virus
  EC50: 0.069 nM
[1]
  CC50 at 4 day: > 100 nM

## Cn1nc(NS(C)(=O)=O)c2c(Cl)ccc(-n3c([C@H](Cc4cc(F)cc(F)c4)NC(=O)Cn4nc(C(F)F)c5c4C(F)(F)[C@@H]4C[C@H]54)nc4nc(-c5cc(C(F)(F)F)ccn5)ccc4c3=O)c21 (atropisomer, axis not shown; (P)) [Example 16, N-((S)-1-((3P)-3-(4-chloro-1-methyl-3-(methylsulfonamido)-1H-indazol-7-yl)-4-oxo-7-(4-(trifluoromethyl)pyridin-2-yl)-3,4-dihydropyrido[2,3-d]pyrimidin-2-yl)-2-(3,5-difluorophenyl)ethyl)-2-((3bS,4aR)-3-(difluoromethyl)-5,5-difluoro-3b,4,4a,5-tetrahydro-1H-cyclopropa[3,4]cyclopenta[1,2-c]pyrazol-1-yl)acetamide]
Recombinant NL4-3 virus
  EC50: 0.052 nM
[1]
  CC50 at 4 day: > 100 nM

## Cc1ccnc(-c2ccc3c(=O)n(-c4ccc(Cl)c5c(NS(C)(=O)=O)nn(C)c45)c([C@H](Cc4cc(F)cc(F)c4)NC(=O)Cn4nc(C(F)F)c5c4C(F)(F)[C@@H]4C[C@H]54)nc3n2)n1 (atropisomer, axis not shown; (P)) [Example 10, N-((S)-1-((3P)-3-(4-chloro-1-methyl-3-(methylsulfonamido)-1H-indazol-7-yl)-7-(4-methylpyrimidin-2-yl)-4-oxo-3,4-dihydropyrido[2,3-d]pyrimidin-2-yl)-2-(3,5-difluorophenyl)ethyl)-2-((3bS,4aR)-3-(difluoromethyl)-5,5-difluoro-3b,4,4a,5-tetrahydro-1H-cyclopropa[3,4]cyclopenta[1,2-c]pyrazol-1-yl)acetamide]
Recombinant NL4-3 virus
  EC50: 0.03 nM
[1]
  CC50 at 4 day: > 100 nM

## Cn1nc(NS(C)(=O)=O)c2c(Cl)ccc(-n3c([C@H](Cc4cc(F)cc(F)c4)NC(=O)Cn4nc(C(F)F)c5c4C(F)(F)[C@@H]4C[C@H]54)nc4nc(-c5ccc6scnc6c5)ccc4c3=O)c21 (atropisomer, axis not shown; (P)) [Example 72, N-((S)-1-(7-(benzo[d]thiazol-5-yl)-(3P)-3-(4-chloro-1-methyl-3-(methylsulfonamido)-1H-indazol-7-yl)-4-oxo-3,4-dihydropyrido[2,3-d]pyrimidin-2-yl)-2-(3,5-difluorophenyl)ethyl)-2-((3bS,4aR)-3-(difluoromethyl)-5,5-difluoro-3b,4,4a,5-tetrahydro-1H-cyclopropa[3,4]cyclopenta[1,2-c]pyrazol-1-yl)acetamide]
Recombinant NL4-3 virus
  EC50: 0.11 nM
[1]
  CC50 at 4 day: > 100 nM

## Cn1nc(NS(C)(=O)=O)c2c(Cl)ccc(-n3c([C@H](Cc4cc(F)cc(F)c4)NC(=O)Cn4nc(C(F)F)c5c4C(F)(F)[C@@H]4C[C@H]54)nc4nc(-c5ccc6ocnc6c5)ccc4c3=O)c21 (atropisomer, axis not shown; (P)) [Example 81, N-((S)-1-(7-(benzo[d]oxazol-5-yl)-(3P)-3-(4-chloro-1-methyl-3-(methylsulfonamido)-1H-indazol-7-yl)-4-oxo-3,4-dihydropyrido[2,3-d]pyrimidin-2-yl)-2-(3,5-difluorophenyl)ethyl)-2-((3bS,4aR)-3-(difluoromethyl)-5,5-difluoro-3b,4,4a,5-tetrahydro-1H-cyclopropa[3,4]cyclopenta[1,2-c]pyrazol-1-yl)acetamide]
Recombinant NL4-3 virus
  EC50: 0.082 nM
[1]
  CC50 at 4 day: > 100 nM
